Measurements published in patent US20230263801A1, “COMBINATION THERAPY OF PARP INHIBITORS” (IMPACT THERAPEUTICS (SHANGHAI), INC, priority 2020, published 2023).
Where two headings read alike, the source gives them in different places. Marks after values point to notes of the source that are not given here. One block for each compound: values may come before it.

Experiments:
[1] = tested on: human small cell lung cancer NCI-H209 cells; experiment: CCK-8 growth inhibition of NCI-H209 cells, IMP4297 alone and combined with TMZ; format: cell-based; conditions: NCI-H209, 120 h
Protocol: The CCK-8 detection method was used to determine the inhibitory effect of IMP4297 combined with TMZ on the growth of human small cell lung cancer NCI-H209 cells. The resuscitated human small cell lung cancer NCI-H209 cells were inoculated into a culture dish, experimental medium (RPMI1640+20% FBS) was added, and the culture dish was incubated at 37° C. and 5% CO2 in an incubator. Cells with good growth and suitable confluence were selected for the experiment, and centrifiged at 800 rpm for 5 min. The supernatant was discarded. The cells were resuspended with fresh medium and inoculated into a 96-well cell culture plate at a suitable cell density. 190 μL of cell suspension liquid was inoculated into each well. The test compound (including IMP4297, TMZ and reference compound AZD2281) was serially diluted with DMSO at a ratio of 1:3 and 1:10 to 10 concentrations (the last concentration is the DMSO negative control). 5 μL of each concentration was added to 120 μL of media (25 times dilution). The mixture was mixed well by shaking. Separate medication: 5 μL of the diluted medium containing the corresponding concentration of the compound and 5 μL of the medium were added respectively, combined medication. 5 μL of the diluted medium containing the corresponding concentration of the compound and 5 μL of the medium containing the final concentration of 50 μM of TMZ were added respectively. The final concentration of DMSO is […]. The culture plate was then incubated at 37° C. and 5% CO2 in an incubator for 5 days. 20 μL of CCK-8 detection reagent was added to each well, and the culture was continued for 2 hours. The culture plate was then shaked for 10 minutes and placed on a multi-function reader to measure the absorbance value (OD value) using the wavelength of 450/65011m. Graph Pad Prism 6.0 was used to analyze the data. The inhibitory effects of compounds on cell proliferation were plotted based on cell viability and the logarithm of compound concentration. Cell viability % (nM) ODcompound/ODDMSO×100. […] The combination index was calculated using CalcuSyn software. […]

[2] = tested on: NCI-H209 human small cell lung cancer xenograft tumor; experiment: In vivo efficacy of IMP4297 combined with TMZ in NCI-H209 xenograft tumor model; parameters: species or system nude mice; conditions: for body weight reduction during the experiment: single agent-treated groups (TMZ 3 mg/kg; IMP4297 10 mg/kg)
Protocol: The anti-tumor efficacy of the compound IMP4297 combined with TMZ was evaluated in the NCI-H209 human small cell lung cancer xenograft tumor model in nude mice. For this purpose, human small cell lung cancer NCI-H209 cells were inoculated into the subcutaneous breast area of the right axilla of nude mice. The cell inoculation amount was 2×10^6 logarithmic growth phase cells. The inoculated mice were used after transplanted tumors were formed. Vigorously growing tumor tissues were cut into small pieces of 1×1×1 mm^3, and inoculated under the skin of the breast area of the right axilla of each BALB/c nude mouse. When the average tumor volume reached about 124.08 (57.16-280.79) mm^3, nude mice were randomly grouped according to the tumor volume and were administered the drugs.
After grouping and drug treatment start, the weight of nude mice was weighed twice a week and recorded. Weight change (%)=(Wt−W1)/W1×100%, wherein W1 is the body weight measured at the time of grouping administration (i.e D1), and Wt is the weight of the recording day. Weight change (%) is a measure of treatment-related toxicity (when average weight loss exceeded 15%, treatment was stopped or the schedule was adjusted until recovery; when average weight loss exceeded 20%, the experiment was terminated). The tumor diameter (length and width) was measured twice a week with a vernier caliper. The tumor volume (length×width^2/2) and the relative tumor volume RTV=Vt/V1 were calculated, wherein V1 is the tumor volume at the time of grouping administration (i.e. D1), and Vt is the tumor volume at each measurement. […] TGM(%)=[(CVt−CV1)−(TVt−TV1)]/(CVt−CV1)×100%, wherein […] is the tumor volume on the recording day of the vehicle control group, […] is the tumor volume of the vehicle control group at the time of grouping administration, TVt is the tumor volume of the drug administration group on the recording day, and TV1 is the tumor volume of the drug administration group at the time of grouping administration.
After the experiment, 3 nude mice were randomly selected from each group, and 300 μL of whole blood was collected from the orbit and placed in a BD K2EDTA anticoagulant tube (REF367841) for routine blood testing.
GraphPad Prism 6.0 software two-way ANOVA was used to compare the mean tumor volume and relative tumor volume between groups. Compared with the control group (vehicle), *p<0.05 (statistical difference), **p<0.01 (significant statistical difference), ***p<0.001 (very significant statistical difference); compared with the TMZ group, ^#p<0.05 (statistical difference), ^##p<0.01 (significant statistical difference), ^###p<0.001 (very significant statistical difference); compared with the IMP4297 group, ^+p<0.05 (statistical difference), ^++p<0.01 (significant statistical difference), ^+++p<0.001 (very significant statistical difference).

[3] = tested on: animal model with BRCA mutation; experiment: IMP4297 single agent efficacy in animal model with BRCA mutation; format: in vivo; conditions: 2.5-20 mg/kg QD in mice
cancer [4] = experiment: Clinical studies of IMP4297 as a single agent in patients with cancer (ESMO 2020 abstracts); format: in vivo; conditions: 20-120 mg QD in human
[5] = tested on: animal model with BRCA mutation; conditions: cited from earlier work
cancer [6] = conditions: QD continuously, cited from earlier work
PARP1 [7] = biological target: T1, PARP1 (Homo sapiens, UniProt P09874); experiment: PARP1 trapping in HCT116 cells treated with TMZ (Western blot of chromatin-bound proteins, ImageJ); format: cell-based; parameters: endogenous in cells; host or cells: HCT116; conditions: for grey density value of PARP1 band: 4 hours, HCT116
Protocol: Colorectal carcinoma HCT116 cells were used in the experiment Cells in exponential growth phase were trypsinized and seeded to 10 cm cell culture plate at a density about 10-20% confluency After two days when cell density reached 70-80%, the cell culture was replaced with fresh medium containing vehicle, 0.1 μM or 10 μM of IMP4297 either in the presence or absence of 1 mM TMZ. Cells were treated for 4 hours. Chromatin-bound proteins were extracted according to the “Subcellular Protein Fractionation Kit for Cultured Cells (Thermo, LOT78840)” protocol.
PARP trapping was detected using SDS-PAGE electrophoresis followed by Western blot Extracted chromatin-bound protein samples were mixed with 5×SDS-PAGE solution and heated for 5 min at 100° C. Equal amount (25-30 μg) of protein was loaded to each lane on a pre-made SDS-PAGE gel (Genscript SurePAGE™, Bis-Tris, 4-20%, 15 wells M00657). Anti-PARP1 antibody (ABCAM ab227244) used in the study was 1:1000 diluted, anti-Histone 113 antibody (ABCAM ab1791) was 1.5000 diluted and anti-rabbit IgG HRP-linked Antibody (CST 7074s) was 1:2000 diluted. The bands were detected by standard Western blot protocol.

PARP1 [8] = biological target: T1, PARP1; experiment: PARP1 trapping in DU145 cells treated with MMS (Western blot of nuclear chromosomal fraction, ImageJ); format: cell-based; parameters: the nuclear chromosomal component was extracted according to subcellular protein fractionation kit instructions; endogenous in cells; host or cells: DU145; conditions: for grey density value of PARP1 band: MMS 0.01%, 4 hours
Protocol: Human prostate cancer DU145 cells were used in the experiment. On the first day, cells were seeded to 10 cm cell culture dishes and kept in an incubator overnight. […] The plates were swirled, and the cells were kept in an incubator at 37° C., 5% CO2 for 4 hours. Totally 12 samples were prepared and tested. After incubation, the nuclear chromosomal component was extracted according to subcellular protein fractionation kit instructions. Protein concentration was measured by Pierce® BCA Protein Assay Kit (Thermo) and protein was ready for western blot assay. 10 μg protein was loaded into each well of bolt gels, then wet transfer was performed, and the membrane was incubated overnight at 4° C. with anti-PARP antibody (Santa Cruz Biotechnology) with 1.500 dilution and 1:25000 dilution of anti-H3 antibody, respectively. The membrane was washed the next day with TBST 3 times, 5 minutes/time, then incubated with Goat anti-rabbit IgG-HRP (Santa Cruz Biotechnology) in a 1:4000 dilution for 1 hour at room temperature. ECL Prime Western Blotting Det kit (GE) was used to develop the target on the membrane.

BRCA mutant animal model = conditions: cited from earlier work
recurrent glioblastoma = conditions: patients with recurrent glioblastoma; cited from earlier work
[9] = separate medication, 5 days, CCK-8, read-out: IC50, proliferation of NCI-H209 cells

T1 sequence (P09874 whole entry): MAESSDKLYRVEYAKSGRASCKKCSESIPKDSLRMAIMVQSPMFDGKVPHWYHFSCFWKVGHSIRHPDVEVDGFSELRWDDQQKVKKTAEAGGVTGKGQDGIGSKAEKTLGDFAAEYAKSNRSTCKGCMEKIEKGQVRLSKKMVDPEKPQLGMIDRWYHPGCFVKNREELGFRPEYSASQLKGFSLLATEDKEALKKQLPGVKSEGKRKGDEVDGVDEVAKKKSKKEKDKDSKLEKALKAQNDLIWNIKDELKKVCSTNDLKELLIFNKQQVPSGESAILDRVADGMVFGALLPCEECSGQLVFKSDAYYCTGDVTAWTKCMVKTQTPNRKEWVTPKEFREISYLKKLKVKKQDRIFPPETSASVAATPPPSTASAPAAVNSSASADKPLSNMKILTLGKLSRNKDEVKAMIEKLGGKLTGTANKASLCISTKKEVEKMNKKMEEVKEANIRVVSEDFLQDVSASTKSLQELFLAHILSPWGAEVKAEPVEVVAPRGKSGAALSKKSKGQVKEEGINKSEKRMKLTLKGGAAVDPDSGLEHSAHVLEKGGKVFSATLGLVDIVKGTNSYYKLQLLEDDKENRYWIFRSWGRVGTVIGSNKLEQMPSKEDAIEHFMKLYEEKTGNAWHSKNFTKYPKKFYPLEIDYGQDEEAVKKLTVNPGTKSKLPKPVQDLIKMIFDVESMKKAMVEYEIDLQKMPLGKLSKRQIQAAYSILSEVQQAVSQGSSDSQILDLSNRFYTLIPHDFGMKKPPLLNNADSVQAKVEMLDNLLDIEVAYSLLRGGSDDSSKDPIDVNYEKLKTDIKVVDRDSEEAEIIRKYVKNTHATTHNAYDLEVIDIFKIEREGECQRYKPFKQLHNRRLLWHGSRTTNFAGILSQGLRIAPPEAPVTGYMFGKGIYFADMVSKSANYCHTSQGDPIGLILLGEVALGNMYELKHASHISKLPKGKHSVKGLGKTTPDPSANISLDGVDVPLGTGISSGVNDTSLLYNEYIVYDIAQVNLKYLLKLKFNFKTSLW

IC50 [1, 9]: 113 nM
PARP1 trapping in nuclear chromosome (PARP1 [7]; 0.1-10 μM in HCT116 cells in the presence of TMZ): good PARP1 trapping
grey density value of PARP1 band (PARP1 [7]; IMP4297 0.1 μmol/L in the presence of TMZ 1 mM): 398
grey density value of PARP1 band (PARP1 [7]; IMP4297 0.1 μmol/L, vehicle (no TMZ)): 141
grey density value of PARP1 band (PARP1 [7]; IMP4297 10 μmol/L in the presence of TMZ 1 mM): 446
grey density value of PARP1 band (PARP1 [7]; IMP4297 10 μmol/L, vehicle (no TMZ)): 182
grey density value of PARP1 band (PARP1 [8]; 0.01 μmol/L drug, DU145): 3667.63
grey density value of PARP1 band (PARP1 [8]; 0.1 μmol/L drug, DU145): 4932.39
grey density value of PARP1 band (PARP1 [8]; 1 μmol/L drug, DU145): 6036.79
grey density value of PARP1 band (PARP1 [8]; 10 μmol/L drug, DU145): 5302.8
PARP1 trapping in nuclear chromosome (PARP1 [8]; 0.01-10 μM, DU145 cells treated with MMS): good PARP1 trapping
SMILES: O=C(c1cc(Cn2c(=O)[nH]c(=O)c3c(F)cccc32)ccc1F)N1CCN(c2ncccn2)CC1 [IMP4297, 5-fluoro-1-(4-fluoro-3-(4-(pyrimidin-2-yl)piperazine-1-carbonyl)benzyl)quinazoline-2,4(1H,3H)-dione]
T/C (%) ([2]; IMP4297 10 mpk p.o. QD x 21 D): 79.12** %
TGI (%) ([2]; IMP4297 10 mpk p.o. QD x 21 D): 18.80** %
body weight reduction during the experiment [2]: no body weight reduction
inhibitory effect on tumor growth versus vehicle ([2]; single agent: TMZ 3 mg/kg, IMP4297 10 mg/kg): no significant inhibitory effect on tumor growth
therapeutic window [3]: 8 fold
therapeutic window (cancer [4]): 6 fold
effective dose as a single agent [5]: 2.5-20 mg/kg per day
clinically effective dose as a single agent (cancer [6]; cancer patients): 20 to 120 mg
RP2D as a single agent (cancer [6]): 100 mg
PARP1 trapping compared with Olaparib (PARP1 [8]; same concentrations and conditions, DU145): stronger PARP1 trapping in nuclear chromosome than Olaparib

IC50 ([1]; read-out: IC50, proliferation of NCI-H209 cells): 2180 nM
SMILES: O=C(c1cc(Cc2n[nH]c(=O)c3ccccc23)ccc1F)N1CCN(C(=O)C2CC2)CC1 [Olaparib]
single effective dose (BRCA mutant animal model; BRCA mutant animal model study): 50-100 mg/kg per day
effect on TMZ-related hematological toxicity (recurrent glioblastoma): exacerbate TMZ-related hematological toxicity

IC50 [1, 9]: > 100000 nM
Average weight change (%) ([2]; TMZ 3 mg/kg p.o. QD x 21 D, versus initial weight): 7.99 ± 5.21%
SMILES: Cn1nnc2c(C(N)=O)ncn2c1=O [TMZ, Temozolomide, reference compound]
T/C (%) ([2]; TMZ 3 mg/kg p.o. QD x 21 D): 64.03**** %
TGI (%) ([2]; TMZ 3 mg/kg p.o. QD x 21 D): 31.66**** %
body weight reduction during the experiment [2]: no body weight reduction

SMILES: Cn1ncnc1[C@H]1c2n[nH]c(=O)c3cc(F)cc(c23)N[C@@H]1c1ccc(F)cc1 [Talazoparib]
single agent effective dose (BRCA mutant animal model; BRCA mutated model): 0.33 mg/kg
